Here are results for two compounds from PMC3280530, “Marine Compounds Selectively Induce Apoptosis in Female Reproductive Cancer Cells but Not in Primary-Derived Human Reproductive Granulosa Cells” (Marine Drugs, 2012).

Assay [1] deals with JAr cells. The assay is described as follows: Crystal violet cell viability assay. It counts as cell-based. Conditions: Homo sapiens. The method, then: (§1) For cell assays, the D. orbita fractions were prepared fresh on the day of the experiment by dissolving in dimethyl sulfoxide (DMSO; 100%) at 100× the final concentration. These were diluted to a range of working concentrations (0.001–0.5 mg/mL) in complete cell assay medium to give a final working concentration per well of 1% DMSO. All samples were filtered through a […] (Sartorius) filter before use.
(§2) The primary-derived granulosa cells, along with the KGN, JAr and OVCAR-3 cell lines (10,000 cells per well) were plated into sterile white (opaque) 96-well plates (Interpath) and clear sterile 96-well plates (Interpath) in 0.1 mL per well of complete cell culture medium for 24 h (granulosa, KGN and OVCAR-3 cells) and 2 h (for JAr cells) to allow cell adherence. Standard curves of 0–40,000 cells per well (primary granulosa cells) and 0–80,000 cells per well (for KGN, JAr and OVCAR-3 cells) in six replicate wells were plated into clear 96-well plates, alongside the test plates. After the initial cell adherence period, spent media (media deficient of nutrients and serum) were discarded and primary-derived granulosa, KGN, JAr and OVCAR-3 cells were treated with the two D. orbita fractions at concentrations of 0.005, 0.01, 0.05, 0.1, and 0.5 mg/mL in a final volume of 0.1 mL per well in triplicate wells, for 4 and 24 h at 37 °C + 5% CO2. 1 h prior to the end of eachincubation period two positive controls were added; one for apoptosis (1 μg/mL DNase I), and the second for necrosis (2 μL per well of a cell lysis buffer; Promega). This experiment was repeated on three separate occasions (n = 3).
(§3) After 4 and 24 h exposure to D. orbita fractions in clear 96-well plates, media and all dead unattached cells were removed. The remaining adherent cells were rinsed with sterile 1× PBS and the crystal violet assay was performed. The crystal violet assay is a colourmetric assay in which only the nuclei of live cells take up the crystal violet stain (0.5%). The absorbance in the wells of the crystal violet plates were read on an automatic spectrophotometer at 570 nm, with reference absorbance 630 nm using KC Junior Software. This assay was repeated on three separate occasions (n = 3).

In assay [2] the test system is KGN cells. Briefly: Crystal violet cell viability assay. It counts as cell-based. Conditions: Homo sapiens. The method, then:
as §1, §2, §3

Assay [3] deals with OVCAR-3 cells. The assay is described as follows: Crystal violet cell viability assay. It is filed as cell-based. Conditions: Homo sapiens, OVCAR-3, crystal violet. The method, then: as §1, §2, §3
In assay [4] the test system is primary-derived human reproductive granulosa cells (HGC). The assay is described as follows: Crystal violet cell viability assay. It counts as cell-based. How it is done: as §1, §2, §3
For assay [5] the test system is unchanged. The assay is described as follows: LDH membrane integrity assay (necrosis). It counts as cell-based. How it is done:
as §2
(§4) After 4 and 24 h exposure to the D. orbita fractions in opaque 96-well plates, a combined membrane integrity and caspase 3/7 assay were performed on the primary-derived granulosa cells and KGN cells. The CytoTox-ONE Homogeneous Membrane Integrity Assay kit (Promega) was applied according to the manufacturer’s instructions. After the fluorescence was read at 535EX/590EM, the Caspase-Glo 3/7® assay (Promega) was applied to the primary granulosa cells and KGN cells according to the manufacturer’s instructions for1h and the plates were read on full light to capture total luminescence. The LDH-membrane integrity assay alone was performed on the JAr and OVCAR-3 cells using the CytoTox-ONE Homogeneous Membrane Integrity Assay kit (Promega). This assay was repeated on three separate occasions (n = 3).

In assay [6] the test system is JAr cells. The assay is described as follows: LDH membrane integrity assay (necrosis). It is filed as cell-based, human. How it is done:
as §2, §4

Assay [7] concerns KGN cells. The assay is described as follows: LDH membrane integrity assay (necrosis). It is filed as cell-based, human. The method, then:
as §2, §4

Assay [8] concerns OVCAR-3 cells. Briefly: LDH membrane integrity assay (necrosis). It is filed as cell-based, human. The method, then: as §2, §4
Assay [9] relates to caspase-3 and -7 activity in HGC. Briefly: Caspase-Glo 3/7 assay. It counts as cell-based, human. Conditions: 4 h treatment. The method, then: as §2, §4
Assay [10] concerns caspase-3 and -7 activity in KGN cells. The assay is described as follows: Caspase-Glo 3/7 assay. It counts as cell-based, human. To be noted: for concentration at which caspase-3 and -7 activity (apoptosis) significantly increased: 4 h treatment. The method, then: as §2, §4
The test system of assay [11] is KGN cells. Briefly: TUNEL staining (apoptosis). To be noted: for TUNEL positive cells: 4 h, 0.05 mg/mL; for TUNEL labelled cells: 24 h, 0.005 mg/mL. It is filed as cell-based, human. The method, then: Primary-derived human granulosa cells and KGN cells were plated into Nunc Lab-Tek II CC2 Chamber Slides at 30,000 cells per chamber well in a final volume of 0.3 mL of DMEM/F12 + 10% FBS complete cell culture medium and incubated for 24 h at 37 °C + 5% CO2 to allow cell attachment to slides. Spent media (media deficient of nutrients and serum) and non-viable and non-adherent cellswere discarded and replaced with the D. orbita fractions at concentrations of 0.005, 0.01 and 0.05 mg/mL in a final volume of 0.3 mL of DMEM/F12 + 10% medium. A medium-only and a 1% DMSO control were also added before incubation for 4 and 24 h at 37 °C + 5% CO2. This experiment was repeated on three separate occasions (n = 3). The supernatant was removed and the cells rinsed with PBS before fixation with 4% paraformaldehyde for 25 min at room temperature. The DeadEnd™ Fluorometric TUNEL System (Promega) was performed as recommended by the manufacturer. Briefly the cells were treated with 0.2% Triton X-100 for 5 min, to permeablize the cells. The cells were rinsed in PBS before the addition of 50 μL of rTdT incubation buffer (Promega) at 37 °C for 1 h, protected from light. Cells were rinsed in 2× sodium chloride and sodium citratesolution (Promega) for 15 min at room temperature (25 °C) then rinsed again with PBS. The cells were counter-stained with 1 μg/mL propidium iodide (PI). A separate positive control slide of 1 μg/mL DNase I, and a negative control slide of buffer without rTdT, was prepared in conjunction with treatment slides. Cells were examined immediately and photographed at 200 and 400× magnification using a Fluorescence Olympus BX50 Microscope with filter Chroma 31001 at excitation 450–495 nm, Dichroic 505 and emission 515–555 nm for the green fluorescein of TUNEL and Chroma 31002 at excitation 515–550 nm, Dichroic 565 and emission 575–615 nm for the red fluorescence of the PI staining. Photomicrographs of four fields of view were taken for each treatment in each repeat of theassay and the number of TUNEL positive nuclei, stained bright green, were calculated as a fraction of the total number of PI stained nuclei, stained bright red, in each image. The average of the four fields was then calculated.

Where [12] appears, read: exposure time not stated at the place (4 and 24 h tested).

Each structure is given as a SMILES string. pIC50: −log10 of the molar value.

For `O=C1Nc2cc(Br)ccc2C1=O` [6-Bromoisatin, 6-bromoisatin], the pIC50 (in general, the negative decadic logarithm of the IC50, by convention in mol/L) with JAr cells [1] (4 h) is 3.65; with JAr cells [1] (24 h) it was 3.75; in the assay on KGN cells [2] (4 h) it was 3.05; with KGN cells [2] (24 h), 3.65; in the assay with OVCAR-3 cells [3] (4 h), 3.35; with OVCAR-3 cells [3] (24 h), 3.57. For the same compound, the pIC50 in [4] (4 h) and in assay [4] (24 h) was less than 2.65 throughout. In addition, the “concentration required to cause LDH release (necrosis)” value in [5] (4 h exposure) and in [5] (24 h exposure) was 2232 µM each time. Further, the “concentration at which LDH release significantly increased” value was 446 µM in the assay with JAr cells [6] (setting [12]); 446 µM with KGN cells [7] (setting [12]); 446 µM in the assay with OVCAR-3 cells [8] (OVCAR-3, exposure time not stated at the place (4 and 24 h tested)). In assay [9], the “concentration at which caspase-3 and -7 activity was detected” value stood at 0.1 mg/mL. Moreover, in [10], the “concentration at which caspase-3 and -7 activity (apoptosis) significantly increased” value was 22 µM. Also, the “change of caspase-3 and 7 activity” value in assay [10] (24 h, 22–2232 µM (0.005–0.5 mg/mL), dose-dependent) is “significantly decreased”. Besides, the TUNEL positive cells in the assay on KGN cells [11] worked out at 58%. Further, the TUNEL labelled cells in the assay with KGN cells [11] is recorded as 53%.
Regarding `CSC1=Nc2cc(Br)ccc2C1=O` [Tyrindoleninone, tyrindoleninone], the pIC50 was 3.63 with JAr cells [1] (4 h); 3.71 with JAr cells [1] (24 h); 3.81 in the assay on KGN cells [2] (4 h); 3.81 in the assay with KGN cells [2] (24 h); 3.50 in the assay with OVCAR-3 cells [3] (4 h); 3.45 with OVCAR-3 cells [3] (24 h). The pIC50 in assay [4] (4 h) and in [4] (24 h) was less than 2.71 in each case. The “LDH released (fluorescence 535EX/590EM)” value came to 876 ± 1084 in assay [5] (4 h, 1953 µM (0.5 mg/mL)) and 1612 ± 771 in the assay on KGN cells [7] (4 h, 1953 µM (0.5 mg/mL)). Further, the “concentration required to cause LDH release (necrosis)” value is given as 1953 µM in [5] (4 h exposure), 1953 µM in assay [5] (24 h exposure), 1953 µM in the assay with KGN cells [7] (4 h exposure) and 195 µM in the assay on KGN cells [7] (24 h exposure). The “concentration at which necrosis (LDH release) was detected” value was 195 µM in the assay on JAr cells [6] (4 h exposure) and 391 µM with OVCAR-3 cells [8] (OVCAR-3, 4 h exposure). Moreover, in assay [9], the “concentration at which caspase-3 and -7 activity (apoptosis) was noted” value was 391 µM. In addition, the “concentration at which caspase-3 and -7 activity (apoptosis) significantly increased” value in assay [10] is 20 µM. Moreover, the TUNEL positive cells in the assay with KGN cells [11] turned out to be 66%. Further, the TUNEL labelled cells in the assay with KGN cells [11] amounted to 62%.
